Experimental data taken from patent US10696687B2, “Pyrazolo fused heterocyclic compounds as ERK inhibitors” (CHANGZHOU JIEKAI PHARMATECH CO., LTD., priority 2015, dated 2020).

system: Colon cancer cells (Colo205 cell line); assay: Colo205 cell proliferation assay (MTT assay, WST-8 readout); type: cell-based; conditions: Homo sapiens, COLO 205, 72 hours incubation, absorbance at 450 nm, read-out: Colo 205 cell growth inhibition IC50
Description: Compounds disclosed herein were tested for the inhibition of ERK2 by a Colo205 cell proliferation assay commonly known as MTT assay. In this assay, a complete media was prepared by adding 10% fetal bovine serum to RPMI-1640 medium (Life technology). Colon cancer cells (Colo205 cell line) were added to each of 88 wells of a 96 well plate at a seeding density of 5,000 cells/well/90 μL. The cells were allowed to attach to the plate by incubating at 37° C. for 24 hours. The compound was dissolved in DMSO (SIGMA). A solution of test compound was prepared in complete media by serial dilution to obtain the following concentrations: 500 μM, 150 μM, 50 μM, 15 μM, 5 μM, 1.5 μM, 0.5 μM, 0.15 μM and 0.05 μM. The test compound solution (10 μL) was added to each of 80 cell-containing wells. The final concentrations of the compound were following: 50 μM, 15 μM, 5 μM, 1.5 μM, 0.5 μM, 0.15 μM, 0.05 μM, 0.015 μM and 0.005 μM. The final concentration of DMSO is 0.5%. To the 8 remaining cell-containing wells, only complete media (containing 0.5% DMSO) was added to form a control group in order to measure maximal proliferation. To the remaining 8 empty wells, complete media was added to for a vehicle control group in order to measure background. The plates were incubated at 37° C. for 72 hours. 10 μL WST-8 solution (DOJINDO, Cell Counting KIT-8) was added to each well. The plates were further incubated at 37° C. for 2 hours, and then read for the absorbance using a microplate reader at 450 nm.

IC50, 0.052 to 10 µM:
Cc1cc(-c2n[nH]c3ncc(C(=O)N[C@H](CO)c4cccc(Cl)c4)cc23)ccn1 [Compound 1, (S)-N-(1-(3-chlorophenyl)-2-hydroxyethyl)-3-(2-methylpyridin-4-yl)-1H-pyrazolo[3,4-b]pyridine-5-carboxamide]
Cc1cc(-c2n[nH]c3nc(NC(=O)N[C@H](C)c4ccccc4)ccc23)ccn1 [Compound 2, (R)-1-(3-(2-methylpyridin-4-yl)-1H-pyrazolo[3,4-b]pyridin-6-yl)-3-(1-phenylethyl)urea]
Cc1cc(-c2n[nH]c3ncc(NC(=O)N[C@@H](C)c4ccccc4)cc23)ccn1 [Compound 4, (S)-1-(3-(2-methylpyridin-4-yl)-1H-pyrazolo[3,4-b]pyridin-5-yl)-3-(1-phenylethyl)urea]
Cc1cc(-c2n[nH]c3ncc(C(=O)N[C@@H]4CN(C(C)C)C[C@H]4c4ccccc4C(F)(F)F)cc23)ccn1 [Compound 21, N-((3S,4R)-1-isopropyl-4-(2-(trifluoromethyl)phenyl)pyrrolidin-3-yl)-3-(2-methylpyridin-4-yl)-1H-pyrazolo[3,4-b]pyridine-5-carboxamide]
COCCN1C[C@@H](NC(=O)c2cnc3[nH]nc(-c4ccnc(C)c4)c3c2)[C@H](c2ccccc2C(F)(F)F)C1 [Compound 22, N-((3S,4R)-1-(2-methoxyethyl)-4-(2-(trifluoromethyl)phenyl)pyrrolidin-3-yl)-3-(2-methylpyridin-4-yl)-1H-pyrazolo[3,4-b]pyridine-5-carboxamide]
Cc1cc(-c2n[nH]c3ncc(C(=O)N[C@H]4CCC[C@@H]4c4ccccc4)cc23)ccn1 [Compound 32]
Cc1cc(-c2n[nH]c3ncc(C(=O)N[C@@H]4CN(C)C[C@H]4c4ccccc4Cl)cc23)ccn1 [Compound 33, N-((3S,4R)-4-(2-chlorophenyl)-1-methylpyrrolidin-3-yl)-3-(2-methylpyridin-4-yl)-1H-pyrazolo[3,4-b]pyridine-5-carboxamide]
Cc1cc(-c2n[nH]c3ncc(C(=O)N[C@H]4CN(C)C[C@@H]4c4ccccc4Cl)cc23)ccn1 [Compound 34, N-((3R,4S)-4-(2-chlorophenyl)-1-methylpyrrolidin-3-yl)-3-(2-methylpyridin-4-yl)-1H-pyrazolo[3,4-b]pyridine-5-carboxamide]
Cc1cc(-c2n[nH]c3ncc(C(=O)N[C@@H]4COC[C@H]4c4ccccc4)cc23)ccn1 [Compound 35, trans-3-(2-methylpyridin-4-yl)-N-(4-phenyltetrahydrofuran-3-yl)-1H-pyrazolo[3,4-b]pyridine-5-carboxamide]
Cc1cc(-c2n[nH]c3ccc(C(=O)N[C@@H]4CN(C)C[C@H]4c4ccccc4Cl)cc23)ccn1 [Compound 37, N-((3S,4R)-4-(2-chlorophenyl)-1-methylpyrrolidin-3-yl)-3-(2-methylpyridin-4-yl)-1H-indazole-5-carboxamide]
Cc1cc(-c2n[nH]c3ccc(C(=O)N[C@@H]4CN(C)C[C@H]4c4ccccc4C(F)(F)F)cc23)ccn1 [Compound 39, N-((3S,4R)-1-methyl-4-(2-(trifluoromethyl)phenyl)pyrrolidin-3-yl)-3-(2-methylpyridin-4-yl)-1H-indazole-5-carboxamide]
Cc1cc(-c2n[nH]c3ccc(C(=O)N[C@H]4CN(C)C[C@@H]4c4ccccc4C(F)(F)F)cc23)ccn1 [Compound 41, N-((3R,4S)-1-methyl-4-(2-(trifluoromethyl)phenyl)pyrrolidin-3-yl)-3-(2-methylpyridin-4-yl)-1H-indazole-5-carboxamide]
Cc1cc(-c2n[nH]c3sc(C(=O)NC(c4ccc(F)cc4)C(C)(C)O)cc23)ccn1 (stereo not shown) [Compound 55, N-(1-(4-fluorophenyl)-2-hydroxy-2-methylpropyl)-3-(2-methylpyridin-4-yl)-1H-thieno[2,3-c]pyrazole-5-carboxamide]
